Results: US11062797B2, “Method and system for obtaining and using pharmacokinetic data in drug administration” (Continuous Precision Medicine, priority 2014, dated 2021)
“And” between values parts separate entries of the source, which are not always exact repeats. Equal entries are not always repeated. Where two headings read alike, the source gives them in different places.

Assays:
[1] = system: patients scheduled for elective esophagogastroduodenoscopy (EGD); conditions: for Maximum Effect Site: Cortinez model estimate; for Maximum Effect Site / Target Effect Site / Time to target: median (IQR); for Target Effect Site: at loss of responsiveness to nasopharyngeal airway placement; for patients with oxygen saturation values below 90%: 100% oxygen via Robertazzi airway
Method: In addition to ASA standard monitors, respiratory inductance plethysmography (RIP) (Ambulatory Monitoring Inc, Armonk, N.Y.), SEDLine® patient state index (PSI) (Masimo Corp, Irvine, Calif.) and RAD87 pulse oximeter (Masimo Corp, Irvine, Calif.) were applied. All patients received 50 μg of fentanyl immediately prior to initiation of sedation. […] In the experimental arm, patient age and weight were used by the PRC algorithm to calculate bolus, infusion1, infusion2, and time for transition from infusion1 to infusion2. These numbers were reviewed by an investigator prior to initiation of sedation, and when the patient could tolerate airway placement, the software determined the maintenance infusion to maintain the effect-site concentration at the value existing at that time. Custom software written in Labview 2012 (National Instruments, Austin, Tex.) performed these calculations, transmitted the infusion rates to a Graseby 3400 pump (Marcal Medical, Millersville, Md.), and acquired data from the monitors.
All patients were preoxygenated using a Mapleson circuit at oxygen flows greater than 10 liters per minute. Following placement of the Robertazzi airway, the Mapleson circuit was connected to the airway via the connector from an endotracheal tube and the adjustable pressure limit valve closed, assuring continuous flow of 100% oxygen into the hypopharynx.
In experimental patients, the CRNA could request additional boluses or changes in infusion rates as they saw fit. […] This measure is reported in two ways. The first is termed “adjustment dose”, which is the cumulative absolute value of the difference between the intended trajectory and the actual administration. The second is the “intended ratio”, which is the ratio of the dose delivered on the intended trajectory and the actual administration. These measures are depicted in FIG. 7. In FIG. 7, the dotted line indicates the actual infusion rates, while the solid line indicates the intended trajectory (fixing the infusion rate at 300 μg/kg/min).
Ventilatory depression was assessed from respiratory inductance plethysmography signals. The signals were filtered by ensemble empirical mode decomposition employing 450 realizations and noise scaled to 40% of signal power. The dominant mode was used for the Huang-Hilbert Transform (HHT). Minute ventilation was computed as the product of the respiratory rate times the magnitude of volume change at one second intervals. Baseline ventilation was determined from several breaths prior to initiation of sedation; subsequent measurements were normalized by this baseline value. These values were grouped into one minute epochs and the median of values less than 100% obtained. Values above 100% were excluded for two reasons.
Oxygen saturation was acquired from the RAD87 at one second intervals, as was the patient state index. Obvious artifacts such as sensor dislodgement were excluded from analysis. Desaturation is reported as cumulative time below specified saturation in the range from 54% to 90%.
Effect site estimates were calculated using the Cortinez model employing the nominal values, with an adjoined effect compartment. The ke0 was chosen to yield a time to peak effect of 1.6 minutes. MATLAB® code for the state-space implementation of this model with observation of the effect site is available on the OpenTCI website.

[2] = Nominal Cortinez model; cited from earlier work
patients with severe OSA = system: patients with severe OSA
Method: Ninety-seven (97) patients were enrolled in a prospective study of transoral robotic resection of the tongue base; the examples described below provided a secondary outcome measure of that study. […] The apnea-hypopnea index (AHI) for each patient was recorded from the sleep study. For each patient the saturation nadirs from the sleep study and DISE were paired for statistical analysis. […] The system utilizes the Cortinez pharmacokinetic model (Cortinez et al., Br J Anaesth. 2010; 105:448-56.) and the Johnson pharmacodynamic model (Johnson et al., Anesth Analg. 2008; 106:471-9.) to determine an infusion sequence comprised of a bolus, initial infusion, secondary infusion, and a time for transition from the initial to secondary infusion using the age and weight of the individual patient. This sequence minimizes the difference between the predicted probability of loss of responsiveness and a linear ramp. This is termed probability ramp control (PRC). A brief description of the mathematical approach can be found below. The MATLAB® program (an embodiment of the system) performed the calculations, indicated the time to perform the transition to the second infusion, and logged the time at which obstruction was noted.
All DISE studies were performed in an operating room with standard monitors and resuscitation equipment. A single otorhinolaryngologist performed each nasopharyngoscopy. […] All DISE patients received 2 liters per minute supplemental oxygen via a nasal cannula placed in the mouth. Supplemental oxygen was not used during polysomnography studies (as is typical for this procedure). Pulse oximetry data was recorded for subsequent analysis from a Nellcor pulse oximeter (Covidien, Mansfield, Mass.) at 30-second intervals by the DocuSys anesthesia record keeping system. […] A Baxter AS50 pump (Baxter, Deerfield, Ill.) was programmed with the initial bolus and infusion rates as determined by the control system. […] With the bronchoscope in position to observe the velopharynx, the sedation sequence proceeded until the onset of obstruction was noted. This was identified as the obstruction clinical endpoint. Observation of the pharynx was performed for a sufficient period to obtain images of the anatomic site(s) of obstruction. The infusion was then terminated and the patient allowed to recover. Patient characteristics and derived pharmacokinetic measures were assessed for normal distribution using the Lilliefors test at 5% significance level using the Statistics Toolbox of MATLAB® 8.0 (MathWorks, Natick, Mass.). […] Comparison of saturation nadirs from DISE and polysomnography was performed with both the paired and unpaired Student's t-test. […] No power analysis was performed for this study, as it was a secondary outcome measure for the larger study of transoral robotic surgery.

DISE patients = conditions: cited from earlier work; for average time for the procedures: DeVito et al.
[3] = system: endoscopic sedation patients; conditions: anesthetist-administered propofol sedation; cited from earlier work

## CC(C)c1cccc(C(C)C)c1O [propofol]
[1]; Control (CRNA dosing)
  Maximum Effect Site: 6.1 (3.5) μg/ml
  Target Effect Site: 4.8 (1.6) μg/ml
  Time to target: 2 (2.2) min
[1]; Experimental (PRC)
  Maximum Effect Site: 5.3 (4.6) NS μg/ml
  Target Effect Site: 4.9 (2.9) NS μg/ml
  Time to target: 3.9 (1.6) min and 3.9 (1.6) * min
[1]; PRC system versus control
  additional time to achieve endoscope placement: 111 s
[1]; control group (CRNA dosing)
  patients identified at targets below 3.9 μg/ml: No control patients
[1]; control patients
  patients with oxygen saturation values below 90%: 3
[1]; experimental group (PRC)
  patients identified at targets below 3.9 μg/ml: 5/20
  patients with targets below effect-site concentrations of 3.9 μg/ml: 20%
[1]; experimental patients
  patients with oxygen saturation values below 90%: 2
[2]
  Q2: 3.2 L/min
  V3: 53.8 L
Patients with severe OSA; 2 liters per minute supplemental oxygen, median ± IQR, polysomnography 81.0±11.25%
  median saturation nadir during DISE: 91.4±5.1%
Patients with severe OSA; Cortinez model, ke0 for time to peak effect of 1.6 minutes
  predicted effect-site concentration for obstruction: 4.2 ± 1.3 µg/mL
Patients with severe OSA; DISE, PRC infusion, n=97, median (IQR)
  median time to obstruction: 3.8 (IQR 1.2) minutes
Patients with severe OSA; DISE, PRC infusion, Cortinez model with adjoined effect compartment
  mean predicted effect-site concentration of propofol at obstruction: 4.2 ± 1.3 µg/mL
Patients with severe OSA; DISE, all patients
  adverse events: no adverse events
Patients with severe OSA; control system according to Example 1
  mean time to obstruction: 3.9 min
Patients with severe OSA; oxygen at 2 liters per minute via oral cannula
  lowest saturation measured: 74%
Patients with severe OSA; sub-cohort of 7 patients whose nadir was not lower during polysomnography
  median saturation nadir during DISE: 85%
DISE patients; TCI group
  average time for the procedures: 15.2 min
  patients demonstrating sedation instability: 5%
DISE patients; manual control group
  average time for the procedures: 6.2 min
DISE patients; manual propofol bolus group
  patients demonstrating sedation instability: 65%
[3]
  BIS values, mean and standard deviation: 72.1±15.1
